Measurements as given in ChEMBL document CHEMBL4387773, “Identification of potent, selective and orally bioavailable phenyl ((R)-3-phenylpyrrolidin-3-yl)sulfone analogues as RORγt inverse agonists” (Bioorg Med Chem Lett, 2019).

Key:
[1] = Stability in human liver microsomes assessed as parent compound remaining after 10 mins; format: ADME, Microsome; details: liver microsomes, read-out: Stability
[2] = molecular target: T1, Nuclear receptor ROR-gamma (Homo sapiens, UniProt P51449); experiment: Inverse agonist activity at human Gal4-fused RORgammat LBD (267 to 516 residues) expressed in human Jurkat cells measured after 18 hrs by steady-glo luciferase reporter gene assay; format: cell-based
T1 sequence (P51449 whole entry): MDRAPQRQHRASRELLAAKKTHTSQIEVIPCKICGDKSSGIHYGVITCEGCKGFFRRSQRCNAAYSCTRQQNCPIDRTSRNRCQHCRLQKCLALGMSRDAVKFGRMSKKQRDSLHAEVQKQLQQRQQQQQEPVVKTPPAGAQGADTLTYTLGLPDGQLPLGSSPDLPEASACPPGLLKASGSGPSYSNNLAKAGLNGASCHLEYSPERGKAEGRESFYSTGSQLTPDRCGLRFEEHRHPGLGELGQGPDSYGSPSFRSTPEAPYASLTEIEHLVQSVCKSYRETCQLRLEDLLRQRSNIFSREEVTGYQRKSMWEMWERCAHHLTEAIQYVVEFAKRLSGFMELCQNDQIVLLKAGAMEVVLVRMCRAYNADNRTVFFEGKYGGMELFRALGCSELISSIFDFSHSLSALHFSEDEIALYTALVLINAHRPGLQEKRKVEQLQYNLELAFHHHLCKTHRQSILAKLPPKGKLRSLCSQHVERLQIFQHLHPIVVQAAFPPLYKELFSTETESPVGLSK

[3] = molecular target: T2, Nuclear receptor subfamily 1 group I member 2 (Homo sapiens, UniProt O75469); experiment: Transactivation of PXR (unknown origin) expressed in human HepG2 cells; format: cell-based
T2 sequence (O75469 whole entry): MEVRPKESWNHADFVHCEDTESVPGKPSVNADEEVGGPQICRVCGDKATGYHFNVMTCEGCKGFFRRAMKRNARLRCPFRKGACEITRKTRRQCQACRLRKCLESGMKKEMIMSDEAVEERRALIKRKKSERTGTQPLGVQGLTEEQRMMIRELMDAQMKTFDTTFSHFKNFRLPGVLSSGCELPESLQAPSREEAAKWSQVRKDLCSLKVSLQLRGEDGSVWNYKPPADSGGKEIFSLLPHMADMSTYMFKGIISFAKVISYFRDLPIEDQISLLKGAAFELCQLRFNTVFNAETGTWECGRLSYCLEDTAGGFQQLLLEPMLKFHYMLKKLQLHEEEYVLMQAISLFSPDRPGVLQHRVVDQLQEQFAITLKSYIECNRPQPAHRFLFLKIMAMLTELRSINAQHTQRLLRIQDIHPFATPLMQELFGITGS

[4] = molecular target: T3, PXR (Homo sapiens, UniProt O75469); experiment: Transactivation of PXR (unknown origin) expressed in human HepG2 cells assessed as maximum receptor activation response relative to control; format: cell-based; details: human HepG2 cells that express PXR, read-out: %max
T3 sequence (O75469 whole entry): T2 sequence (O75469 whole entry)

[5] = Stability in mouse liver microsomes assessed as parent compound remaining after 10 mins; format: ADME, Microsome; details: liver microsomes, read-out: Stability
[6] = molecular target: T4, Nuclear receptor ROR-alpha (Homo sapiens, UniProt P35398); experiment: Inverse agonist activity at human Gal4-fused RORalpha LBD (272 to 556 residues) expressed in human Jurkat cells measured after 18 hrs by steady-glo luciferase reporter gene assay; format: cell-based
T4 sequence (P35398 whole entry): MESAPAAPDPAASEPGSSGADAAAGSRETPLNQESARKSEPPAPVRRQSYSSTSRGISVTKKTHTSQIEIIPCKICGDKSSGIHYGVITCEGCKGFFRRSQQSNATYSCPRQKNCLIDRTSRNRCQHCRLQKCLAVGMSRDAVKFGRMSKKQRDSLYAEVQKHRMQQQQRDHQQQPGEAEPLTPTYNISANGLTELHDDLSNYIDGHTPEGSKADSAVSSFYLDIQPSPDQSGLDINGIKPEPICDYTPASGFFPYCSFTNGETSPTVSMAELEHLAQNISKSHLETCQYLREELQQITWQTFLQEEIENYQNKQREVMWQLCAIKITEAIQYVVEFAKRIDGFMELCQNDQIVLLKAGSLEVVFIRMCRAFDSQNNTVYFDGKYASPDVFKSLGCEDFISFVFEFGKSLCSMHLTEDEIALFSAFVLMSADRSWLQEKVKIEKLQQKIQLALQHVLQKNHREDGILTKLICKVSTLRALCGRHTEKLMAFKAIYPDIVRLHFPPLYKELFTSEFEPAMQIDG

[7] = molecular target: T5, Nuclear receptor ROR-beta (Homo sapiens, UniProt Q92753); experiment: Inverse agonist activity at human Gal4-fused RORbeta LBD (200 to 559 residues) expressed in human Jurkat cells measured after 18 hrs by steady-glo luciferase reporter gene assay; format: cell-based
T5 sequence (Q92753 whole entry): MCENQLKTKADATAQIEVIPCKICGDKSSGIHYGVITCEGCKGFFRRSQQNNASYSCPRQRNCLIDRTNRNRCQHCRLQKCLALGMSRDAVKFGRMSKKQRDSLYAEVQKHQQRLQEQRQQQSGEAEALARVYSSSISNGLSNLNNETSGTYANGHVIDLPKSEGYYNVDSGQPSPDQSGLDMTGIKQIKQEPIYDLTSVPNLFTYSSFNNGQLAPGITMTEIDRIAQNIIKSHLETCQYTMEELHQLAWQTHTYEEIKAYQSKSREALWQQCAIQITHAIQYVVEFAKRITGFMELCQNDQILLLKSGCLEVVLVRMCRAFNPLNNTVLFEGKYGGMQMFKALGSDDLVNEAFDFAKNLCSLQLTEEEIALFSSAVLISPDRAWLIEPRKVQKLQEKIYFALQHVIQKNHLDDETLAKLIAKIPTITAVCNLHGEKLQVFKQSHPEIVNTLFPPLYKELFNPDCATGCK

[8] = molecular target: T6, Oxysterols receptor LXR-alpha (Homo sapiens, UniProt Q13133); experiment: Transactivation of human GAL4-fused LXRalpha expressed in African green monkey CV1 cells; format: cell-based
T6 sequence (Q13133 whole entry): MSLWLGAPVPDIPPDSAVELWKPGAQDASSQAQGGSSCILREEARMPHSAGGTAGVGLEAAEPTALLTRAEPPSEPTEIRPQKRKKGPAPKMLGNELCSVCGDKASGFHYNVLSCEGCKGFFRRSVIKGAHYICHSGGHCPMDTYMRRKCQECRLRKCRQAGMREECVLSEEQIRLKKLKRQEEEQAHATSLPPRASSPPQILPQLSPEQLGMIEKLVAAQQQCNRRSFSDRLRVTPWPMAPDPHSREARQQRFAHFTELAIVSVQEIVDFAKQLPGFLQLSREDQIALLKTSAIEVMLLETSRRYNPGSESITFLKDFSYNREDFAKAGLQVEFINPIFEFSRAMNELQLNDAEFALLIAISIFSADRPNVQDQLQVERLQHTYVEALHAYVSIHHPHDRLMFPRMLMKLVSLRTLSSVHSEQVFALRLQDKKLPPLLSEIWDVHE

[9] = molecular target: T7, Oxysterols receptor LXR-beta (Homo sapiens, UniProt P55055); experiment: Transactivation of human GAL4-fused LXRbeta expressed in African green monkey CV1 cells; format: cell-based
T7 sequence (P55055 whole entry): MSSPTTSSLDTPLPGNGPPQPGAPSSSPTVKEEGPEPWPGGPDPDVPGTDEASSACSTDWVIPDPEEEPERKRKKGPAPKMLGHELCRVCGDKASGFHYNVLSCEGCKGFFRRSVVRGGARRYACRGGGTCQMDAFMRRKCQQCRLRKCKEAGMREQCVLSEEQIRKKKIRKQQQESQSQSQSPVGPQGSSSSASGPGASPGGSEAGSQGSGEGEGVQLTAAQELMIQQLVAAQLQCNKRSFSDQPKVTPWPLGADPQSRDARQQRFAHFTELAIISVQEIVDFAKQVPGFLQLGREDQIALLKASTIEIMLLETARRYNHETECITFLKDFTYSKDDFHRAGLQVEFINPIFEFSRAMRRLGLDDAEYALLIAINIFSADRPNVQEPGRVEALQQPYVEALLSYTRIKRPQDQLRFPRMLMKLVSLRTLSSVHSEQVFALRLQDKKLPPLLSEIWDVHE

SMILES | remaining at 10 min [1] [%] | EC50 [2] [nM] | EC50 [3] [µM] | Emax [4] [%] | remaining at 10 min [5] [%] | EC50 [6] [µM] | EC50 [7] [µM] | EC50 [8] [µM] | EC50 [9] [µM]
C[C@]1(C(=O)N2CC[C@](c3ccc(C(F)(C(F)(F)F)C(F)(F)F)cc3)(S(=O)(=O)c3ccc(F)cc3)C2)CC[C@H](C(=O)O)CC1 | 80 | 56 | > 50 | 7 | 95 | > 40 | > 40 | > 7.5 | > 7.5
C[C@]1(C(=O)N2CC[C@](c3ccc(C(F)(C(F)(F)F)C(F)(F)F)cc3)(S(=O)(=O)c3ccc(F)cc3)C2)CC[C@@H](C(=O)O)CC1 | 85 | 776 | > 50 | 18 | 100 | > 40 | > 40 | > 7.5 | > 7.5
